# Experimental data published in publication PMC6155021, “Ancient and modern anticonvulsants act synergistically in a KCNQ potassium channel binding pocket” (Nature Communications, 2018).
# Experiments:
# KCNQ2 = KCNQ2 (Homo sapiens, UniProt O43526); assay: Two-electrode voltage-clamp of homomeric KCNQ2 in Xenopus oocytes; assay type: cell-based
# Text: (§1) cRNA transcripts encoding human KCNA1, KCNQ1, KCNQ2, KCNQ3, KCNQ4, or KCNQ5 were generated by in vitro transcription using the T7 polymerase message machine kit (Thermo Fisher Scientific), after vector linearization, from cDNA sub-cloned into plasmids incorporating X. laevis β-globin 5′ and 3′ UTRs flanking the coding region to enhance translation and cRNA stability. cRNA was quantified by spectrophotometry. Mutant cDNAs were generated by site-directed mutagenesis using a QuikChange kit according to manufacturer’s protocol (Stratagene, San Diego, CA) and corresponding cRNAs prepared as above. Defolliculated stage V and VI X. laevis oocytes (Ecocyte Bioscience, Austin, TX) were injected with Kv channel α subunit cRNAs (10 ng total per oocyte). Oocytes were incubated at 16 °C in Barth’s saline solution (Ecocyte) containing penicillin and streptomycin, with daily washing, for 3–5 days prior to two-electrode voltage-clamp (TEVC) recording.
# (§2) Oocytes were placed in a small-volume oocyte bath (Warner) and viewed with a dissection microscope. Chemicals were sourced from Sigma. Bath solution was (in mM): 96 NaCl, 4 KCl, 1 MgCl2, 1 CaCl2, 10 HEPES (pH 7.6). […] MTX (DMSO), sorbic acid (ethanol), and glutaconic acid (molecular grade H2O) were stored at −20 °C as 1 M stocks. Oleamide was stored as a 1 mM stock in ethanol at 4 °C. Palmitic acid was conjugated with bovine serum albumin as a 1 mM stock and stored at −20 °C. All compounds were diluted to working concentrations each experimental day. All compounds were introduced to the recording bath via gravity perfusion at a constant flow of 1 ml/min for 3 min prior to recording. Pipettes were of 1–2 MΩ resistance when filled with 3 M KCl. Currents were recorded in response to pulses between −80 and +40 mV at 20 mV intervals, or a single pulse to +40 mV, from a holding potential of −80 mV, to yield current–voltage relationships, current magnitude, and for quantifying activation rate. TEVC data analysis was performed with Clampfit10.2 (Molecular Devices) and Graphpad Prism software (GraphPad, San Diego, CA, USA); values are stated as mean ± SEM. Normalized tail currents were plotted versus prepulse voltage and fitted with a single Boltzmann function:1 g=A1-A2/1+expV12-Vy+A2, where g is the normalized tail conductance, A1 is the initial value at −∞, A2 is the final value at +∞, V1/2 is the half-maximal voltage of activation, and Vs the slope factor. Activation and deactivation kinetics were fitted with single-exponential functions.
# KCNQ4 = KCNQ4 (Homo sapiens, UniProt P56696); assay: cell-based; assay type: cell-based
# Text: as §1, §2
# W236L-Q2/Q3 channels = W236L-Q2/Q3 channels (Homo sapiens, UniProt O43525+O43526, W236L); assay: Two-electrode voltage-clamp of W236L-Q2/Q3 mutant channels in Xenopus oocytes; assay type: cell-based; conditions: for Non-normalized tail current V0.5 / Normalized tail current V0.5 / Slope: W236L-Q2/Q3
# Text: as §1, §2
# [1] = target: KCNQ2-W236L/KCNQ3-W265L channels (Homo sapiens, UniProt O43525+O43526, W236L/W265L); assay: Two-electrode voltage-clamp of W236L-Q2/W265L-Q3 mutant channels in Xenopus oocytes; assay type: cell-based; conditions: for Non-normalized tail current V0.5 / Normalized tail current V0.5 / Slope: W236L-Q2/W265L-Q3
# Text: as §1, §2
# KCNQ2/3 channels = KCNQ2/3 channels (Homo sapiens, UniProt O43525+O43526); assay: Relative ion permeability of KCNQ2/3 channels (pseudo-bi-ionic substitution, GRb/GK); assay type: cell-based; conditions: MTX 30 µM
# Protocol: For relative permeability studies, currents were recorded in response to a single pulse to +40 mV for 5 s, followed by pulses between −80 mV and +40 mV at 20 mV intervals, from a holding potential of −80 mV, to yield a current–voltage relationship. According to the Goldman–Hodgkin–Katz (GHK) voltage equation:2 Erev=RT∕FlnPKK^+O+PNaNaO+PClCli/PKK^+i+PNaNai+PClClo, where Erev is the absolute reversal potential and P is the permeability. This permits calculation of the relative permeability of each ion if concentrations on either side of the membrane are known. A modified version of this equation was used here to determine relative permeability of two ions in a system in which only the extracellular ion concentration was known. Thus, relative permeability of Rb^+, Cs^+, and Na^+ compared to K^+ ions was calculated for all channels by plotting the I/V relationships for each channel with each extracellular ion (100 mM) and comparing them to that with 100 mM extracellular K^+ ion to yield a change in reversal potential (ΔErev) for each ion compared to that of K^+. Permeability ratios for each ion compared to K^+ were then calculated as3 ΔErev=Erev,X-Erev,K=RT/zFlnPX/PK
# For calculating Rb^+/K^+ permeability (Fig. 3g), tail currents were elicited by a single pulse to +40 mV, followed by a pulse at −80 mV, from a holding potential of −80 mV in 98 mM [K^+] and then 98 mM [Rb^+]. […]
# KCNQ1 = KCNQ1 (Homo sapiens, UniProt P51787); design: method as in PMID 27997884; conditions: cited from earlier work
# KCNQ1, sequence (P51787 whole entry): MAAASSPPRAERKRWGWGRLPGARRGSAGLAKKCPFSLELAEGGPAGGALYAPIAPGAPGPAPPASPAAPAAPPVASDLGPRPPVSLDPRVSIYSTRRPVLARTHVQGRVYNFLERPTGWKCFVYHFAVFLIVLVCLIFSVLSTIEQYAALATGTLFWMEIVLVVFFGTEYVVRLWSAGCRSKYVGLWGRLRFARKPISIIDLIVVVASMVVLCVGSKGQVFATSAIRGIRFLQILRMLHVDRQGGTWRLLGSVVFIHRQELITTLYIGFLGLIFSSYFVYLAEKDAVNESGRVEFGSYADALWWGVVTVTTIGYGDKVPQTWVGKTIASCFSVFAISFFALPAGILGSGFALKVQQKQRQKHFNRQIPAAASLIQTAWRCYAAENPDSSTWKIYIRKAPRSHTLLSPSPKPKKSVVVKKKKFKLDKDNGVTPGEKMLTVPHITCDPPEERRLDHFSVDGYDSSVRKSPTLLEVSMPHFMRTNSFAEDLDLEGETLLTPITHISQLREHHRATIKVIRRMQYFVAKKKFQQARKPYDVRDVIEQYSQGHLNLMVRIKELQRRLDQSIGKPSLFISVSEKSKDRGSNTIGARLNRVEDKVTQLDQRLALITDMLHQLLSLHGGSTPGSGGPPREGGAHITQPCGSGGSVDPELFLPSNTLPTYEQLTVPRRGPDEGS
# W236L-Q2/Q3 channels, sequence (O43525 whole entry): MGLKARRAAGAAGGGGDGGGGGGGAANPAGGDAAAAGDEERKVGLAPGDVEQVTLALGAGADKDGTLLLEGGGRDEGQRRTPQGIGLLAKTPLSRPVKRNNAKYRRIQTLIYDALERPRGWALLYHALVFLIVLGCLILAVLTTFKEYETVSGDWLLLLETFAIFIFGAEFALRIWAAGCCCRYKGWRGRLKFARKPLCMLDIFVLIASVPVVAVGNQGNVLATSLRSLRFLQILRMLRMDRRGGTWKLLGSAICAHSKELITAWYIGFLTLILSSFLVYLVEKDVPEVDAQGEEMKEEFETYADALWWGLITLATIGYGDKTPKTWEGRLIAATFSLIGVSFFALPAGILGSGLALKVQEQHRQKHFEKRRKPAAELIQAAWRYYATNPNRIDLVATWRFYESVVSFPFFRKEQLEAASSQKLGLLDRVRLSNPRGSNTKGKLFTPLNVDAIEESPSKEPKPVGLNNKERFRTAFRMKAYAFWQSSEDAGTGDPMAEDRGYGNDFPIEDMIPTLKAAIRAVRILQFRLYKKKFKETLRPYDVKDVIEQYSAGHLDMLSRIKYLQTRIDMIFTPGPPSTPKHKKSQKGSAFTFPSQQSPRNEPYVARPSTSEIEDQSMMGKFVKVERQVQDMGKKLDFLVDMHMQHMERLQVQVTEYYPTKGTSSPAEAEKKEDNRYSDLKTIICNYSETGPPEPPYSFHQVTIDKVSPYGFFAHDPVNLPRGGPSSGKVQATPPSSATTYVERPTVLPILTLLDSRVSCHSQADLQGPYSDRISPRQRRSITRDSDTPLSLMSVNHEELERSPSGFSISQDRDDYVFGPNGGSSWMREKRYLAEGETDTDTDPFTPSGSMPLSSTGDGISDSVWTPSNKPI
# W236L-Q2/Q3 channels, sequence (O43526 whole entry W236L): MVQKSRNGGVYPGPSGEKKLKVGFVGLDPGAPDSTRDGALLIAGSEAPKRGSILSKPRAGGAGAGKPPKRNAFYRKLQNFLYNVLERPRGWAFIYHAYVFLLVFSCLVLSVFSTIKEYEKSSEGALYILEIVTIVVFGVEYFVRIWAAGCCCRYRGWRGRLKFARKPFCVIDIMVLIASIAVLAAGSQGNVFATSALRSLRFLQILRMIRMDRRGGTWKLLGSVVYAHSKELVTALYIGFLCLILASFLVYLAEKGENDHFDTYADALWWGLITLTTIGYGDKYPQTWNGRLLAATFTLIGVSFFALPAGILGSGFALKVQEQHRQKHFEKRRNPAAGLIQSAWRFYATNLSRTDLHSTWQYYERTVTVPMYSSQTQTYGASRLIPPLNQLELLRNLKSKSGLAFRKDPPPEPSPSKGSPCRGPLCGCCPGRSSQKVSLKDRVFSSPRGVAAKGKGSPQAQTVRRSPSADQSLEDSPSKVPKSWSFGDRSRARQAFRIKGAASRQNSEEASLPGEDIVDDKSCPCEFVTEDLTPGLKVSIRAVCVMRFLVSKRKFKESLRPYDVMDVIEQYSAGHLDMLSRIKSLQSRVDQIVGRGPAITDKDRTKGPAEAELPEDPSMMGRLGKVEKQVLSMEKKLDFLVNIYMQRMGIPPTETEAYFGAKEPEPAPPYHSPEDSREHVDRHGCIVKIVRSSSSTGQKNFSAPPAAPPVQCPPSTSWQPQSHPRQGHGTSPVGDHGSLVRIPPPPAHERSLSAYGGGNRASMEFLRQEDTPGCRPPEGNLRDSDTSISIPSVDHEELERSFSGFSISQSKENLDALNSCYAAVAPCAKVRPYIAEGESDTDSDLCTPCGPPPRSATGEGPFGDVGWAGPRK
smiles,measurement,setting,value
"CC(=O)c1c(O)c(C)c(O)c(Cc2c(O)c3c(c(C(=O)/C=C/c4ccccc4)c2O)OC(C)(C)C=C3)c1O [MTX, mallotoxin]",EC50,KCNQ2,6.4 µM
same,Non-normalized tail current V0.5,"KCNQ2; KCNQ2, 0.1 µM",-50.0 ± 0.4 mV
same,Normalized tail current V0.5,"KCNQ2; KCNQ2, 0.1 µM",-50.0 ± 0.35 mV
same,Slope,"KCNQ2; KCNQ2, 0.1 µM",7.4 ± 0.23 mV
same,"τ act, -40 mV","KCNQ2; KCNQ2, 0.1 µM",538 ± 20 ms
same,"τ deact, -80 mV","KCNQ2; KCNQ2, 0.1 µM",294 ± 10 ms
same,Non-normalized tail current V0.5,"KCNQ2; KCNQ2, 1 µM",-51.7 ± 2.0 mV
same,Normalized tail current V0.5,"KCNQ2; KCNQ2, 1 µM",-51.4 ± 0.46 mV
same,Slope,"KCNQ2; KCNQ2, 1 µM",7.4 ± 0.31 mV
same,"τ act, -40 mV","KCNQ2; KCNQ2, 1 µM",490 ± 23 ms
same,"τ deact, -80 mV","KCNQ2; KCNQ2, 1 µM",271 ± 11 ms
same,Non-normalized tail current V0.5,"KCNQ2; KCNQ2, 3 µM",-52.1 ± 2.5 mV
same,Normalized tail current V0.5,"KCNQ2; KCNQ2, 3 µM",-54.9 ± 0.41 mV
same,Slope,"KCNQ2; KCNQ2, 3 µM",7.3 ± 0.33 mV
same,"τ act, -40 mV","KCNQ2; KCNQ2, 3 µM",417 ± 25 ms
same,"τ deact, -80 mV","KCNQ2; KCNQ2, 3 µM",237 ± 12 ms
same,Non-normalized tail current V0.5,"KCNQ2; KCNQ2, 10 µM",-61.7 ± 2.7 mV
same,Normalized tail current V0.5,"KCNQ2; KCNQ2, 10 µM",-61.2 ± 0.87 mV
same,Slope,"KCNQ2; KCNQ2, 10 µM",7.0 ± 1.0 mV
same,"τ act, -40 mV","KCNQ2; KCNQ2, 10 µM",341 ± 22 ms
same,"τ deact, -80 mV","KCNQ2; KCNQ2, 10 µM",199 ± 11 ms
same,Non-normalized tail current V0.5,"KCNQ2; KCNQ2, 30 µM",-68.7 ± 2.7 mV
same,Normalized tail current V0.5,"KCNQ2; KCNQ2, 30 µM",-68.5 ± 1.5 mV
same,Slope,"KCNQ2; KCNQ2, 30 µM",7.4 ± 0.6 mV
same,shift in midpoint voltage of activation,"KCNQ2; KCNQ2, 30 µM",−24 mV
same,"τ act, -40 mV","KCNQ2; KCNQ2, 30 µM",301 ± 19 ms
same,"τ deact, -80 mV","KCNQ2; KCNQ2, 30 µM",173 ± 10 ms
same,Non-normalized tail current V0.5,"KCNQ2; KCNQ2, 100 µM",-66.2 ± 2.7 mV
same,Normalized tail current V0.5,"KCNQ2; KCNQ2, 100 µM",-66.0 ± 2.7 mV
same,Slope,"KCNQ2; KCNQ2, 100 µM",8.1 ± 1.2 mV
same,"τ act, -40 mV","KCNQ2; KCNQ2, 100 µM",353 ± 22 ms
same,"τ deact, -80 mV","KCNQ2; KCNQ2, 100 µM",190 ± 8 ms
same,EC50,KCNQ4,20.2 µM
same,Non-normalized tail current V0.5,"KCNQ4; KCNQ4, 0.1 µM",-17.1 ± 8.1 mV
same,Normalized tail current V0.5,"KCNQ4; KCNQ4, 0.1 µM",-17.0 ± 1.6 mV
same,Slope,"KCNQ4; KCNQ4, 0.1 µM",14.1 ± 1.6 mV
same,"τ act, -40 mV","KCNQ4; KCNQ4, 0.1 µM",941 ± 52 ms
same,"τ deact, -80 mV","KCNQ4; KCNQ4, 0.1 µM",924 ± 223 ms
same,Non-normalized tail current V0.5,"KCNQ4; KCNQ4, 1 µM",-18.1 ± 9.0 mV
same,Normalized tail current V0.5,"KCNQ4; KCNQ4, 1 µM",-18.1 ± 1.9 mV
same,Slope,"KCNQ4; KCNQ4, 1 µM",15.0 ± 1.9 mV
same,"τ act, -40 mV","KCNQ4; KCNQ4, 1 µM",878 ± 78 ms
same,"τ deact, -80 mV","KCNQ4; KCNQ4, 1 µM",891 ± 234 ms
same,Non-normalized tail current V0.5,"KCNQ4; KCNQ4, 3 µM",-20.5 ± 9.8 mV
same,Normalized tail current V0.5,"KCNQ4; KCNQ4, 3 µM",-20.1 ± 1.3 mV
same,Slope,"KCNQ4; KCNQ4, 3 µM",15.6 ± 1.9 mV
same,"τ act, -40 mV","KCNQ4; KCNQ4, 3 µM",851 ± 70 ms
same,"τ deact, -80 mV","KCNQ4; KCNQ4, 3 µM",861 ± 240 ms
same,Non-normalized tail current V0.5,"KCNQ4; KCNQ4, 10 µM",-25.3 ± 9.7 mV
same,Normalized tail current V0.5,"KCNQ4; KCNQ4, 10 µM",-25.6 ± 1.9 mV
same,Slope,"KCNQ4; KCNQ4, 10 µM",15.9 ± 1.9 mV
same,"τ act, -40 mV","KCNQ4; KCNQ4, 10 µM",847 ± 94 ms
same,"τ deact, -80 mV","KCNQ4; KCNQ4, 10 µM",906 ± 293 ms
same,Non-normalized tail current V0.5,"KCNQ4; KCNQ4, 30 µM",-32.9 ± 9.7 mV
same,Normalized tail current V0.5,"KCNQ4; KCNQ4, 30 µM",-32.1 ± 1.9 mV
same,Slope,"KCNQ4; KCNQ4, 30 µM",14.4 ± 1.8 mV
same,shift in midpoint voltage of activation,"KCNQ4; KCNQ4, 30 µM",−17 mV
same,"τ act, -40 mV","KCNQ4; KCNQ4, 30 µM",865 ± 108 ms
same,"τ deact, -80 mV","KCNQ4; KCNQ4, 30 µM",905 ± 283 ms
same,Non-normalized tail current V0.5,"KCNQ4; KCNQ4, 100 µM",-31.3 ± 9.4 mV
same,Normalized tail current V0.5,"KCNQ4; KCNQ4, 100 µM",-31.5 ± 1.3 mV
same,Slope,"KCNQ4; KCNQ4, 100 µM",16.4 ± 3.2 mV
same,"τ act, -40 mV","KCNQ4; KCNQ4, 100 µM",1092 ± 170 ms
same,"τ deact, -80 mV","KCNQ4; KCNQ4, 100 µM",1197 ± 446 ms
same,EC50,"W236L-Q2/Q3 channels; EC50, W236L-Q2/Q3, calculated from dose responses",27 ± 0.6 µM
same,EC50,"W236L-Q2/Q3 channels; V0.5 EC50, W236L-Q2/Q3, calculated from shift in V0.5",37.3 ± 0.2 µM
same,Non-normalized tail current V0.5,W236L-Q2/Q3 channels; 1 µM,-55.7 ± 1.9 mV
same,Normalized tail current V0.5,W236L-Q2/Q3 channels; 1 µM,-57.1 ± 0.9 mV
same,Slope,W236L-Q2/Q3 channels; 1 µM,6.0 ± 0.7 mV
same,Non-normalized tail current V0.5,W236L-Q2/Q3 channels; 3 µM,-55.4 ± 2.1 mV
same,Normalized tail current V0.5,W236L-Q2/Q3 channels; 3 µM,-57.8 ± 1.3 mV
same,Slope,W236L-Q2/Q3 channels; 3 µM,3.9 ± 2.2 mV
same,Non-normalized tail current V0.5,W236L-Q2/Q3 channels; 10 µM,-57.3 ± 2.7 mV
same,Normalized tail current V0.5,W236L-Q2/Q3 channels; 10 µM,-58.1 ± 0.9 mV
same,Slope,W236L-Q2/Q3 channels; 10 µM,6.2 ± 0.7 mV
same,Non-normalized tail current V0.5,W236L-Q2/Q3 channels; 30 µM,-61.9 ± 3.9 mV
same,Normalized tail current V0.5,W236L-Q2/Q3 channels; 30 µM,-62.4 ± 1.3 mV
same,Slope,W236L-Q2/Q3 channels; 30 µM,6.6 ± 0.9 mV
same,Non-normalized tail current V0.5,W236L-Q2/Q3 channels; 100 µM,-67.9 ± 7.7 mV
same,Normalized tail current V0.5,W236L-Q2/Q3 channels; 100 µM,-71.4 ± 4.5 mV
same,Slope,W236L-Q2/Q3 channels; 100 µM,6.8 ± 1.2 mV
same,EC50,[1],14.9 ± 0.1 µM
same,Non-normalized tail current V0.5,[1]; 1 µM,-62.5 ± 3.4 mV
same,Normalized tail current V0.5,[1]; 1 µM,-62.8 ± 0.4 mV
same,Slope,[1]; 1 µM,5.9 ± 0.5 mV
same,Non-normalized tail current V0.5,[1]; 3 µM,-63.6 ± 3.7 mV
same,Normalized tail current V0.5,[1]; 3 µM,-64.1 ± 0.9 mV
same,Slope,[1]; 3 µM,6.3 ± 0.9 mV
same,Non-normalized tail current V0.5,[1]; 10 µM,-66.3 ± 3.9 mV
same,Normalized tail current V0.5,[1]; 10 µM,-67.3 ± 0.9 mV
same,Slope,[1]; 10 µM,6.4 ± 0.6 mV
same,Non-normalized tail current V0.5,[1]; 30 µM,-70.6 ± 3.7 mV
same,Normalized tail current V0.5,[1]; 30 µM,-71.9 ± 0.9 mV
same,Slope,[1]; 30 µM,6.3 ± 0.5 mV
same,Non-normalized tail current V0.5,[1]; 100 µM,-74.4 ± 3.9 mV
same,Normalized tail current V0.5,[1]; 100 µM,-77.3 ± 1.4 mV
same,Slope,[1]; 100 µM,5.9 ± 1.8 mV
same,GRb/GK (ratio of Rb+ conductance to K+ conductance),"KCNQ2/3 channels; KCNQ2/3, baseline 0.75 ± 0.10",0.52 ± 0.06
same,relative ion permeability of KCNQ2/3 compared to K+,KCNQ2/3 channels; 100 mM extracellular ion,"increased relative permeability of KCNQ2/3 to Na^+ and Cs^+, and decreased permeability to Rb^+"
same,effect on KCNQ1,KCNQ1,activated
